Experimental data as given in US12233060B2, “Inhibitors of Ataxia-Telangiectasia Mutated and Rad3-related protein kinase (ATR) for use in methods of treating cancer” (THE INSTITUTE OF CANCER RESEARCH: ROYAL CANCER HOSPITAL, priority 2016, dated 2025).

How the values were obtained:
HCC1143 cells = experiment: 384 well plate cell survival after ARID1A siRNA transfection; format: cell-based, human; details: ARID1A siRNA vs control, five continuous days exposure
Excerpt: FIG. 1. […] A. Structure of VE-821 and schematic describing workflow for parallel VE-821 chemosensitisation screens in MCF12A and HCC1143 cells. B. Scatter plots of VE-821 Drug Effect (DE) Z-scores from all 1280 siRNAs used in the in the chemosensitisation screens. The DE Z-score threshold of −2 (red line) was used for defining candidate synthetic lethal interactions is shown. C. Venn diagram of DE<−2 VE-821 sensitisation hits in MCF12A and HCC1143 cells. Numbers shown indicate number of sensitisation genes. Amongst the 30 genes with DE Z-scores <−2 in both cell lines, seven well-established tumour suppressor genes were identified. D. Bar charts illustrating DE Z-scores for control, non-targeting, siRNAs (siALLSTAR, siCON1, siCON2) and ARID1A siRNAs in the chemosensitisation screens. Values shown are median from triplicate screens and error bars represent SD. […]
A siRNA library was purchased from Dharmacon. […] RNAi screening conditions were optimised and raw CellTitre-Glo (Promega) luminescent viability readings were generated as previously described21. […]
Short-term survival assays were performed in 384-well plates. […] Drug was added 24 h after seeding and cells were continuously exposed to the drug for five days, after which cell viability was estimated using CellTitre-Glo luminescence (Promega). […] Colonies were counted manually. […]

[1] = test system: HCT116 ARID1A−/− xenografts; experiment: In vivo efficacy, HCT116 ARID1A−/− subcutaneous xenografts; design: species or system mice
Description: FIG. 3. In vivo ARID1A/ATR synthetic lethality. A. Schematic of VX-970 therapy experiment in mice bearing established HCT116 ARID1A^+/+ and ARID1A^−/− xenografts. Cells were inoculated subcutaneously into nude mice and tumors allowed to establish for 10 days. Mice were then randomized to treatment regimens of either VX-970 (60 mg/kg, 4× weekly by oral gavage) or vehicle. Mice were then treated for a subsequent 40 days. Tumor volume was monitored twice weekly. B. Relative tumor volume plot from (A) showing efficacy of VX-970 and selectivity for ARID1A^−/− xenografts* p=0.024, ANOVA. C. Schematic of tumor incidence experiment in mice with non-established HCT116 ARID1A^+/+ and ARID1A^−/− xenografts. Mice were inoculated with cells as before, randomized and then treated with VX-970. VX-970 or vehicle treatment was initiated on the day of cell implantation. Tumor volume was monitored twice weekly and overall tumour incidence was assessed 40 days later. D. Bar chart of incidence 40 days after implantation of HCT116 ARID1A^+/+ and ARID1A^−/− cells. Each group contained 15 animals and fractions above bars indicate the number of animals in which a measurable xenograft formed. *p=0.027 Fisher's exact test. E and F. Tumor growth in experiment described in (C). *p=0.015 ANOVA. G. VX-970 dose response curves from TOV21G (ARID1A mutant) and RMG1 (ARID1A wildtype) cells. Cells were exposed to VX-970 for 5 days. […] PARP-1, cleaved PARP-1 (85 kDa fragment) and tubulin were detected by western blot. […] Caspase3/7 activity was assessed using Caspase-Glo and total cellular viability was estimated using CellTitre-Glo. Luminescence ratios for Caspase-Glo (i.e. apoptotic cells) and CellTitre-Glo (ie viable cells) was determined for each dose and normalized to DMSO treated samples. *Student's t-test, p<0.05. […]
In vivo efficacy studies were performed using HCT116 […], HCT116 ARID1A^−/− and TOV21G cells injected subcutaneously in the flank of female CD-1 Nude mice. […] Tumours were measured manually by calliper trice weekly and animals were sacrificed when tumours reached >15 mm in any direction.

CNCc1ccc(-c2cc(-c3nc(-c4ccc(S(=O)(=O)C(C)C)cc4)cnc3N)on2)cc1 [VX-970, 5-[4-(Isopropylsulfonyl)phenyl]-3-(3-{4-[(methylamino)methyl]phenyl}-1,2-oxazol-5-yl)-2-pyrazinamine]
ATRi sensitivity caused by ARID1A siRNA (HCC1143 cells): caused sensitivity
growth of established ARID1A−/− xenografts ([1]; 60 mg/kg, 4x weekly oral gavage, 40 days): significantly inhibited the growth
growth of ARID1A−/− tumours under continued treatment ([1]; non-established xenograft experiment, p=0.015 ANOVA): dramatically slowed the growth
frequency of ARID1A−/− tumour formation ([1]; treatment from day of cell implantation, incidence 40 days later, 15 animals per group): 27%
